One data set relates to BW25113 E. coli strain. Kind of data set: Minimum inhibitory concentration (MIC) assay of furfural in MOPS minimal media. Format: cell-based. Particulars: Escherichia coli, n=3, read-out: MIC (first concentration of furfural that inhibited bacterial growth). The procedure: In one exemplary method, assays were performed to determine minimum inhibitory concentration (MIC) of ethanol, furfural and acetate for BW25113 and MG1655 E. coli strains. FIG. 16 represents a histogram plot of illustrating tolerance differences of furfural in BW25113 and MG1655 E. coli strains. Cells from each strain were inoculated from the same optical density into a total of 100 μL of varying furfural concentrations in a minimal media, for example using MOPS. Cell growth in the first 24 hr or 48 hr in the presence of furfural was monitored. The left bar in each pair for each indicated strain represents a first concentration of furfural that inhibited bacterial growth after 24 hr. The right bar for each strain represents the first concentration that inhibited growth after 48 hr. The MIC reads were the average of triplicates (n=3), and error bars represent standard deviation. […] Thus, this difference in strains led to further investigation into the difference between these strains. ArecA signifies strains where the gene has been knocked out as previously described.

A further data set relates to BW25113 ArecA pLPCA. The data set is described as follows: MIC assay of furfural, lpcA overexpression strain. Format: cell-based, E. coli. To be noted: Escherichia coli. The procedure: In one exemplary method, assays were performed to determine minimum inhibitory concentration (MIC) of ethanol, furfural and acetate for BW25113 and MG1655 E. coli strains. […] Cells from each strain were inoculated from the same optical density into a total of 100 μL of varying furfural concentrations in a minimal media, for example using MOPS. Cell growth in the first 24 hr or 48 hr in the presence of furfural was monitored. The left bar in each pair for each indicated strain represents a first concentration of furfural that inhibited bacterial growth after 24 hr. The right bar for each strain represents the first concentration that inhibited growth after 48 hr. The MIC reads were the average of triplicates (n=3), and error bars represent standard deviation. […] ArecA signifies strains where the gene has been knocked out as previously described.
The minimum inhibitory concentration (MIC) of furfural of MG1655 and BW25113 with or without lpcA overexpression was determined. MIC assays were performed as described in Example 13. […] MIC reads were average of triplicates (n=3), and error bars represent standard deviation. The SDS-PAGE gel image in FIG. 17C represents LPS level of the cells indicated above the gel image (duplicate of each cell sample was presented). LPS was extracted from the indicated cells grown to exponential phase. Loading of LPS the SDS-PAGE gel was normalized to the cell number. The gel was stained for visualization after desired separation of LPS was obtained.
In another exemplary method, MIC was determined when MG1655 and BW25113 strains were fed with various carbon sources. MIC assays were performed in the presence of furfural. Glucose, Xylose or Ribose was supplemented with a minimal media for cell growth. […] MICs were read at the indicated time (24 hr or 48 hr), the average of triplicates was presented and error bars represent standard deviation. ‘Blank vector’ refers to the pBTL-1 vector, which served as the control. […]

Data set [1] has as its system pBTL-1 Control (blank vector) culture. The data set is described as follows: Aerobic growth (specific growth, final OD600) in MOPS minimal media with inhibitor, control. Format: cell-based, E. coli. Particulars: aerobic growth in 1 g/L furfural. The procedure:
(§1) Certain experiments described herein were performed in E. coli BW25113 recA-, with the kanamycin resistance gene removed.
(§2) Cultures were grown in 10 ml MOPS minimal media, 100 μg carbenicillin/ml, and either 1 g furfural/1 supplemented, 2 g HMF/1, or 4 g acetate/1, in 15 ml conical tubes at 37° C. The optical density of 1 ml culture was measured with a spectrophotometer at 600 nm. A natural log transformation of the data was then calculated and then a regression line was fit to the data to calculate specific growth, which is […] to the culture doubling time. The blank vector, pBTL-1, served as the control. The lpcA gene was cloned into the pBTL-1 using standard cloning techniques and primers designed to amplify the gene from template DNA.

The subject of the next data set is pBTL-1 lpcA culture. In kind it is cell-based, E. coli. Particulars: aerobic growth in 1 g/L furfural. The procedure: as §1, §2
Data set [2] deals with pyruvate dehydrogenase (PDH) complex. To be noted: 0.12 g/L furfural; cited from earlier work.
A further data set has as its system ADH. To be noted: 0.12 g/L furfural; cited from earlier work.
Another data set has as its system E. coli LYO1. Particulars: cited from earlier work.
For data set [3] the following is noted: furfural vs. furfuryl alcohol; cited from earlier work.

The structures appear in SMILES notation. In brackets after ≈: the same amount, converted by molar mass. Like-named read-outs stand apart in the source and are kept apart here.

Consider `O=Cc1ccco1` [furfural, furan-2-carbaldehyde], for which the MIC in the data set with BW25113 E. coli strain (BW25113, after 24 hr) came out at 500 µg/mL (≈ 5.2 mM); in the data set on BW25113 E. coli strain (BW25113, after 48 hr), 1200 µg/mL (≈ 12.5 mM); with BW25113 ArecA pLPCA (BW25113, read-out: MIC of furfural, BW25113 ArecA pLPCA, FIG. 17C) it was 1250 µg/mL; in the data set with BW25113 ArecA pLPCA (BW25113, read-out: MIC of furfural, pLPCA, glucose as carbon source, FIG. 18B), 1250 µg/mL; with BW25113 ArecA pLPCA (BW25113, read-out: MIC of furfural, pLPCA, xylose as carbon source, FIG. 18B), 1000 µg/mL. For the same molecule, the “Final OD600 (24 hr)” value in data set [1] worked out at 0.586; in the data set with pBTL-1 lpcA culture, 0.918. For the same molecule, the “Specific Growth” value in data set [1] (n=3) is 0.111 h⁻¹; in the data set on pBTL-1 lpcA culture (n=3), 0.153 h⁻¹. For the same molecule, the activity reduction result in data set [2] is given as “more than 80%”. Besides, in the data set with ADH, the activity inhibited was 60%. Also, the ethanol production result with E. coli LYO1 is on record as “inhibited”. Moreover, in data set [3], the “toxicity on a concentration basis” value is recorded as about 2 g/L.

The values are drawn from patent US20130217132A1, “METHODS, COMPOSITIONS AND USE FOR ENHANCING CHEMICAL TOLERANCE BY MICROORGANISMS” (priority 2009, published 2013).
